Laboratory results as given in patent EP2108954A1, “A test system for detecting intracellular cyclic nucleotide level and methods and uses thereof” (Max-Planck-Gesellschaft zur Förderung der Wissenschaften …, priority 2008, dated 2009).

Target: T1, Or83b (Drosophila melanogaster, UniProt Q9VNB5)
T1 sequence (Q9VNB5 1-486): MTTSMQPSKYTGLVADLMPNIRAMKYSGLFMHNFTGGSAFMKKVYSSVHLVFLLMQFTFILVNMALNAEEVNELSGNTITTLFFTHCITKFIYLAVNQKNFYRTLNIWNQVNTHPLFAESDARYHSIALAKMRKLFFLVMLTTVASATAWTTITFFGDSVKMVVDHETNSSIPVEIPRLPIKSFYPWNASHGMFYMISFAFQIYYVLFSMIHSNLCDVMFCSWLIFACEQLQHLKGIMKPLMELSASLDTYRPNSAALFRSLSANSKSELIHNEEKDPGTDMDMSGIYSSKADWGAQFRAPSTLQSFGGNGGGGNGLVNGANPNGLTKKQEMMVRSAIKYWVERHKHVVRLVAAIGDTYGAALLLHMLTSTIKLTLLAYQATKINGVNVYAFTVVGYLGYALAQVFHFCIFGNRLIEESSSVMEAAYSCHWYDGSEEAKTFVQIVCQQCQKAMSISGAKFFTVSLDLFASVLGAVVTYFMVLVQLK
Test: Whole-cell patch-clamp of HEK293 cells expressing Or83b alone
Type: cell-based
Set-up: expressed in transfected cells; host or cells: HEK293
Settings: HEK293 cells transfected with Or83b alone; whole-cell, -60 mV; n = 6
Experimental: In some experiments we transfected cells with pcDNA3-DOR22a-GFP or pcDNA3-DOR83b-GFP alone. We also examined the properties of DOR47a, which was cloned, using standard molecular biology methods into a pcDNA3.1(-) expression vector. To test for putative G-protein coupling, cells were transfected with the respective OR-DNA together with 1.5 µg hHCN2/pcDNA3 (provided by M. Biel, Munich, Germany), with 1 µg hKCNQ4/pcDNA3.1 or with 1 µg hCNGA2/pCMV6-XL4 (Origene, Rockville, MD, USA).
In brief, ion currents in HEK293 cells were measured at room temperature using whole-cell patch-clamp with appropriate compensation of series resistance and of capacitive currents. Additional experiments were performed in the outside-out configuration. Current measurements and data acquisition were performed using an EPC9 patch-clamp amplifier controlled by PatchMaster software (both HEKA Elektronik, Lambrecht, Germany). Patch-clamp pipettes were fabricated from borosilicate capillaries. Pipettes for whole-cell recordings had resistances of 2-4 MΩ for excised-patch recordings the pipette resistance was up to 15 MΩ.
To differentiate between ionotropic and metabotropic pathways of receptor activation (Fig. 2a-d) the pipette solution contained either 2 mM ATP plus 2 mM GTP or 2 mM ADP plus 2 mM GDP (both for whole-cell and outside-out configuration). For the preparation of Cl^--free solutions the chloride salts were substituted by gluconate salts. The pipette Cs^+ solution contained (in mM) 140 CsCl, 1 Mg-ATP, 10 EGTA, 10 HEPES (pH = 7.3), and the Cs^+ bath solution contained (in mM) 140 CsCl, 15 glucose, 15 HEPES (pH = 7.4). The Ca^2+-free bath solution contained (in mM) 140 NaCl, 15 glucose, 15 HEPES, and the Na^+-free bath solution contained (in mM) 140 NMDG-Cl, 10 CaCl2, 10 glucose, 15 HEPES.
With the exception of GDP-γ-S, which was applied via the patch pipette, all substances were applied to the bath using either a bath perfusion system (BPS4 from ALA, New York, USA) or a rapid solution changer (RSC160 from Biologic, Claix, France) which were controlled by the PatchMaster software (HEKA Elektronik).

Structure (SMILES): CCCC(=O)OCC [Etb, ethyl butyrate]
- inward current upon short Etb application: no current was observed
